Non-standard residues stand in square brackets, D forms with d. Residues, ends and D or L forms follow the SMILES beside them.
Biological target: GPR54 (Homo sapiens, UniProt Q969F8)
Assay: Inositol phosphate (IP) antagonism assay: inhibition of 10 nM kisspeptin-10 stimulation of IP in CHO/gpr-54 cells
Type: cell-based
Set-up: G. Vassart, Univ; Brussels
Conditions: for Inhibition of IP stimulation by 10 nM Agonist: % Inhibition of Max / IC50: CHO cells, 10 nM kisspeptin-10; for IC50: unit inferred, given in M
Protocol: Inositol-3-phoshate Antagonistic Assay—Cell monolayers had 0.5 mls HEPES modified DMEM supplemented with […] for 30 mins at 37° C. to block IP3 breakdown. Cells were then stimulated with 0.25 mls 10 nM Kisspeptin-10 plus 0.25 mls of 10 nM Kisspeptin-10 or analogues (10 pM-10 uM) diluted at 1:1000 in the above media for 1 hr at 37° C., then in 10 mM Formic acid at 4° C. for 1 hr to lyse cells. Lysate was then transferred to plastic tubes containing 0.5 mls Dowex resin to bind the radioactive IP3 and the resin was then washed with 1 ml H2O. The resin was then washed with 60 mM NH4 formate/5 mM Sodium tetraborate followed by 1M NH4 formate/0.1M Formic acid to release the bound radiation. Then 800 μls of the radioactive solution were transferred to scintillation vials containing 2.5 mls scintillation fluid and radioactivity counted on a Beta counter for 60 seconds.
Chinese hamster ovary (CHO) cells stably-expressing the human gpr-54 receptor (CHO/gpr-54) were obtained from Prof. G. Vassart, Univ. Brussels. The cells were maintained in Dulbecco's modified Eagle's medium (DMEM; Sigma) supplemented with 10% fetal calf serum, 2% glutamine and 1% penicillin (10,000 units/ml)/streptomycin ([…]) at 37° C. in a humidified 5% CO2 atmosphere.
Experiments were repeated 3-5 times. IP production was plotted as mean values±SEM and analyzed using a Student's t-Test ([…]).

Sequence of GPR54 (Q969F8 whole entry): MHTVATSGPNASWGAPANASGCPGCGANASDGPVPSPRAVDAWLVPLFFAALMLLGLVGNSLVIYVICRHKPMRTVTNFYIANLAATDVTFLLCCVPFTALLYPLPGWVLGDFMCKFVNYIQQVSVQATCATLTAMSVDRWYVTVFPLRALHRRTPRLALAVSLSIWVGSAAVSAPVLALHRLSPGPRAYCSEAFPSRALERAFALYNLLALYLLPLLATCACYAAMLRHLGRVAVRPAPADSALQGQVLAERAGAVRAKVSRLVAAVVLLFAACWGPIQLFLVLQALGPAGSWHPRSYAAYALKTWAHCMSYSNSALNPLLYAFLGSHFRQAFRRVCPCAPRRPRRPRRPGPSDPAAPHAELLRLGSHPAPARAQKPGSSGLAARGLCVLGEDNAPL

SMILES	Inhibition of IP stimulation by 10 nM Agonist: % Inhibition of Max	IC50	kisspeptin antagonist function (with N-terminal Antennapedia heptapeptide)
CC(=O)N[C@H](C)C(=O)N[C@@H](CC(N)=O)C(=O)N[C@@H](Cc1c[nH]c2ccccc12)C(=O)N[C@@H](CC(N)=O)C(=O)NCC(=O)N[C@H](Cc1c[nH]c2ccccc12)C(=O)NCC(=O)N[C@H](Cc1c[nH]c2ccccc12)C(=O)N[C@@H](CCCNC(=N)N)C(=O)N[C@@H](Cc1ccccc1)C(N)=O [Peptide 246] (Ac-[dA]NWNG[dW]G[dW]RF-NH2)	80%	50 nM	
CC(=O)N[C@H](Cc1ccc(O)cc1)C(=O)N[C@@H](CC(N)=O)C(=O)N[C@@H](Cc1c[nH]c2ccccc12)C(=O)N[C@@H](CC(N)=O)C(=O)N[C@@H](CO)C(=O)N[C@@H](Cc1ccccc1)C(=O)NCC(=O)N[C@H](Cc1c[nH]c2ccccc12)C(=O)N[C@@H](CCCNC(=N)N)C(=O)N[C@@H](Cc1ccccc1)C(N)=O [Peptide 238] (Ac-[dY]NWNSFG[dW]RF-NH2)	0%		
CC(=O)N[C@H](Cc1ccc(O)cc1)C(=O)N[C@H](CC(N)=O)C(=O)N[C@@H](Cc1c[nH]c2ccccc12)C(=O)N[C@@H](CC(N)=O)C(=O)N[C@@H](CO)C(=O)N[C@@H](Cc1ccccc1)C(=O)NCC(=O)N[C@@H](Cc1c[nH]c2ccccc12)C(=O)N[C@@H](CCCNC(=N)N)C(=O)N[C@@H](Cc1ccccc1)C(N)=O [Peptide 239] (Ac-[dY][dN]WNSFGWRF-NH2)	0%		
CC(=O)N[C@H](C)C(=O)N[C@@H](CC(N)=O)C(=O)N[C@@H](Cc1c[nH]c2ccccc12)C(=O)N[C@@H](CC(N)=O)C(=O)NCC(=O)N[C@@H](Cc1ccccc1)C(=O)NCC(=O)N[C@H](CC(C)C)C(=O)N[C@@H](CCCNC(=N)N)C(=O)N[C@@H](Cc1ccccc1)C(N)=O [Peptide 276] (Ac-[dA]NWNGFG[dL]RF-NH2)	65%		
CC(=O)N[C@H](C)C(=O)N[C@@H](CC(N)=O)C(=O)N[C@@H](Cc1c[nH]c2ccccc12)C(=O)N[C@@H](CC(N)=O)C(=O)NCC(=O)N[C@@H](Cc1ccccc1)C(=O)NCC(=O)N[C@@H](Cc1c[nH]c2ccccc12)C(=O)N[C@@H](CCCNC(=N)N)C(=O)N[C@@H](Cc1ccccc1)C(N)=O [Peptide 248] (Ac-[dA]NWNGFGWRF-NH2)	64%		
CC(=O)N[C@@H](Cc1ccccc1)C(=O)NCC(=O)N[C@@H](CC(C)C)C(=O)N[C@@H](CCCNC(=N)N)C(=O)N[C@@H](Cc1ccccc1)C(N)=O [Peptide 188] (Ac-FGLRF-NH2)	74%		
CC(=O)N[C@@H](CC(N)=O)C(=O)N[C@@H](CO)C(=O)N[C@@H](Cc1ccccc1)C(=O)NCC(=O)N[C@@H](CC(C)C)C(=O)N[C@@H](CCCNC(=N)N)C(=O)N[C@@H](Cc1ccccc1)C(N)=O [Peptide 186] (Ac-NSFGLRF-NH2)	70%		
CC(=O)N[C@@H](Cc1ccccc1)C(=O)NCC(=O)N[C@H](Cc1c[nH]c2ccccc12)C(=O)N[C@@H](CCCNC(=N)N)C(=O)N[C@@H](Cc1ccccc1)C(N)=O [Peptide 206] (Ac-FG[dW]RF-NH2)	68%	10 nM	
CC(=O)N[C@@H](Cc1ccccc1)C(=O)NCC(=O)N[C@@H](CC(C)C)C(=O)N[C@H](CCCNC(=N)N)C(=O)N[C@@H](Cc1c[nH]c2ccccc12)C(N)=O [Peptide 200]	63%	300 nM	
CC(C)C[C@H](NC(=O)CNC(=O)[C@H](Cc1ccccc1)NC(=O)[C@H](CO)NC(=O)[C@H](CC(N)=O)NC(=O)[C@H](Cc1c[nH]c2ccccc12)NC(=O)[C@H](CC(N)=O)NC(=O)[C@@H](N)Cc1ccc(O)cc1)C(=O)N[C@@H](CCCNC(=N)N)C(=O)N[C@@H](Cc1c[nH]c2ccccc12)C(N)=O [Peptide 187] (H-YNWNSFGLRW-NH2)	36%		
CC(C)C[C@H](NC(=O)CNC(=O)[C@H](Cc1ccccc1)NC(=O)CNC(=O)[C@H](CC(N)=O)NC(=O)[C@H](Cc1c[nH]c2ccccc12)NC(=O)[C@H](CC(N)=O)NC(=O)[C@@H](N)Cc1ccc(O)cc1)C(=O)N[C@@H](CCCNC(=N)N)C(=O)N[C@@H](Cc1ccccc1)C(N)=O [Peptide 208] (H-YNWNGFGLRF-NH2)	55%	1000 nM	
CC(=O)N[C@@H](Cc1ccc(O)cc1)C(=O)N[C@@H](CC(N)=O)C(=O)N[C@@H](Cc1c[nH]c2ccccc12)C(=O)N[C@@H](CC(N)=O)C(=O)N[C@H](Cc1c[nH]c2ccccc12)C(=O)N[C@@H](Cc1ccccc1)C(=O)NCC(=O)N[C@H](Cc1c[nH]c2ccccc12)C(=O)N[C@@H](CCCNC(=N)N)C(=O)N[C@@H](Cc1ccccc1)C(N)=O [Peptide 229] (Ac-YNWN[dW]FG[dW]RF-NH2)	68%	8000 nM	
CC(=O)N[C@H](C)C(=O)N[C@@H](CC(N)=O)C(=O)N[C@@H](Cc1c[nH]c2ccccc12)C(=O)N[C@@H](CC(N)=O)C(=O)N[C@@H](CO)C(=O)N[C@@H](Cc1ccccc1)C(=O)NCC(=O)N[C@H](Cc1c[nH]c2ccccc12)C(=O)N[C@@H](CCCNC(=N)N)C(=O)N[C@@H](Cc1ccccc1)C(N)=O [Peptide 247] (Ac-[dA]NWNSFG[dW]RF-NH2)	80%		
CC(=O)N[C@H](C)C(=O)N[C@@H](CC(N)=O)C(=O)N[C@@H](Cc1c[nH]c2ccccc12)C(=O)N[C@@H](CC(N)=O)C(=O)N1CCC[C@H]1C(=O)N[C@@H](Cc1ccccc1)C(=O)NCC(=O)N[C@H](Cc1c[nH]c2ccccc12)C(=O)N[C@@H](CCCNC(=N)N)C(=O)N[C@@H](Cc1ccccc1)C(N)=O [Peptide 274] (Ac-[dA]NWNPFG[dW]RF-NH2)	73%	0.1 nM	
CC(=O)N[C@@H](Cc1ccccc1)C(=O)NCC(=O)N[C@H](CC(C)C)C(=O)N[C@@H](CCCNC(=N)N)C(=O)N[C@@H](Cc1c[nH]c2ccccc12)C(N)=O [Peptide 191]	79%		
CC(=O)N[C@@H](Cc1ccccc1)C(=O)NCC(=O)N[C@@H](C)C(=O)N[C@@H](CCCNC(=N)N)C(=O)N[C@@H](Cc1c[nH]c2ccccc12)C(N)=O [Peptide 201] (Ac-FGARW-NH2)	69%	7 nM	
CC(=O)N[C@@H](Cc1ccccc1)C(=O)NCC(=O)N[C@@H](CC(C)C)C(=O)N[C@@H](CCCNC(=N)N)C(=O)N[C@@H](Cc1c[nH]c2ccccc12)C(N)=O [Peptide 189]	94%		
CSCC[C@H](NC(=O)[C@H](CCCNC(=N)N)NC(=O)[C@H](CCCNC(=N)N)NC(C)=O)C(=O)N[C@@H](CCCCN)C(=O)N[C@@H](Cc1c[nH]c2ccccc12)C(=O)N[C@@H](CCCCN)C(=O)N[C@@H](CCCCN)C(=O)N[C@@H](Cc1ccc(O)cc1)C(=O)N[C@H](C)C(=O)N[C@@H](CC(N)=O)C(=O)N[C@@H](Cc1c[nH]c2ccccc12)C(=O)N[C@@H](CC(N)=O)C(=O)NCC(=O)N[C@@H](Cc1ccccc1)C(=O)NCC(=O)N[C@H](Cc1c[nH]c2ccccc12)C(=O)N[C@@H](CCCNC(=N)N)C(=O)N[C@@H](Cc1ccccc1)C(N)=O [Peptide 271, ac.R-R-M-K-W-K-K-Y-(D)A-N-W-N-G-F-G-(D)W-R-F.z] (Ac-RRMKWKKY[dA]NWNGFG[dW]RF-NH2)	57%	5 nM	retains kisspeptin antagonist function
CC(=O)N[C@@H](Cc1ccc(O)cc1)C(=O)N[C@@H](CC(N)=O)C(=O)N[C@H](Cc1c[nH]c2ccccc12)C(=O)N[C@@H](CC(N)=O)C(=O)NCC(=O)N[C@@H](Cc1ccccc1)C(=O)NCC(=O)N[C@H](Cc1c[nH]c2ccccc12)C(=O)N[C@@H](CCCNC(=N)N)C(=O)N[C@@H](Cc1ccccc1)C(N)=O [Peptide 231] (Ac-YN[dW]NGFG[dW]RF-NH2)	55%	0.1 nM	
CC(C)C[C@H](NC(=O)CNC(=O)[C@@H](Cc1ccccc1)NC(=O)CNC(=O)[C@H](CC(N)=O)NC(=O)[C@H](Cc1c[nH]c2ccccc12)NC(=O)[C@H](CC(N)=O)NC(=O)[C@@H](N)Cc1ccc(O)cc1)C(=O)N[C@@H](CCCNC(=N)N)C(=O)N[C@@H](Cc1ccccc1)C(N)=O [Peptide 211] (H-YNWNG[dF]GLRF-NH2)	73%	1000 nM	
CC(=O)N[C@H](Cc1ccc(O)cc1)C(=O)N[C@@H](CC(N)=O)C(=O)N[C@@H](Cc1c[nH]c2ccccc12)C(=O)N[C@@H](CC(N)=O)C(=O)NCC(=O)N[C@H](Cc1c[nH]c2ccccc12)C(=O)NCC(=O)N[C@H](Cc1c[nH]c2ccccc12)C(=O)N[C@@H](CCCNC(=N)N)C(=O)N[C@@H](Cc1ccccc1)C(N)=O [Peptide 245] (Ac-[dY]NWNG[dW]G[dW]RF-NH2)	66%		
CC(C)C[C@H](NC(=O)CNC(=O)[C@@H](Cc1c[nH]c2ccccc12)NC(=O)CNC(=O)[C@H](CC(N)=O)NC(=O)[C@H](Cc1c[nH]c2ccccc12)NC(=O)[C@H](CC(N)=O)NC(=O)[C@@H](N)Cc1ccc(O)cc1)C(=O)N[C@@H](CCCNC(=N)N)C(=O)N[C@@H](Cc1ccccc1)C(N)=O [Peptide 212] (H-YNWNG[dW]GLRF-NH2)	68%	< 0.1 nM	

From US8916681B2, “Compound, use and method” (Medical Research Council, priority 2007, dated 2014)
